From patent US20060063944A1, “Estrone derivatives and process for producing same” (CHUGAI SEIYAKU KABUSHIKI KAISHA, priority 2002, published 2006)

Tests used:
[1] = AUC measurement in oral administration, test with monkeys; assay type: in vivo; settings: female, cynomolgus monkey, 3 mg/kg, PEG/water/ethanol solution, plasma
Description: (§1) The AUC of specified compounds in oral administration was measured by the following tests.
A PEG/water/ethanol [8/4/3 (v/v)] solution (3 ml/kg) of a test substance (3 mg/kg) was administered orally into cynomolgus monkeys (female, 3-5 years old, 2.5-4 kg) through a catheter inserted from the nostrils into the stomach and about 1 ml of blood was taken over a period of 48 hours at specified time intervals (15 minutes, 30 minutes, and 1, 2, 4, 6, 8, 10, 24 and 48 hours). The concentration of the test substance in the sampled plasma was measured by use of LC/MS/MS (ESI, eluant: acetonitrile/water) and AUC was determined by moment analysis. The test substances were compound 1 and compound 4. The second component prepared in step 1 of Example 1 was used as control compound 1.

[2] = test system: bone marrow derived osteoclast precursor cells; experiment: Differentiation of bone marrow derived osteoclast precursor cells into mature osteoclasts (TRAP staining); assay type: cell-based, ddY mice; settings: mean ± SD, n=3, 48-well plates
Description: Bone marrow cells separated from the vertebrae of ddY mice (male, 7-9 week old) were cultivated on cell culture plates for 3 days in the presence of a macrophage colony-stimulating factor (M-CSF, 10 ng/ml). The suspended cells were washed with PBS and removed whereas the cells adhering to the plates were used as osteoclast precursor cells. Following the addition of more M-CSF (10 ng/ml) and a soluble RANK ligand (sRANKL, 40 ng/ml), the precursors were cultivated for 3-4 days in order to induce the maturation of osteoclasts. Before this cultivation, either compound 1 or a solvent (ethanol) alone was added in order to see what effects they would have. The maturation of osteoclasts was evaluated by staining the cultivated cells with a tartrate resistant acid phosphatase (TRAP) and counting the number of trinuclear and higher TRAP stained cells. Table 1 and FIG. 1 show the mean and SD values for the experiment in which the number of mature osteoclasts that were produced per well in 48-well plates was evaluated for n=3.

[3] = test system: increase in the weight of the uterus induced by 17β-estradiol benzoate; experiment: Anti-estrogen activity in oral administration (suppression of estradiol-induced increase in uterus weight in ovariectomized mice); assay type: in vivo; settings: ovariectomized ICR mice, oral 10 mg/kg once a day for 3 days, 17β-estradiol benzoate 0.1 μg s.c.
Description: In the test, each of the test compounds and a control compound were suspended in a 5% gum arabic solution and administered to the mice orally in doses of 10 mg/kg on a once-a-day basis for 3 days. Twenty-four hours after the administration of the final dose, the test animals were slaughtered and the uterus was extracted and its weight was measured.

[4] = target: T1, intranuclear estrogen receptor (EgR) (Homo sapiens, UniProt P03372); experiment: Estrogen receptor downregulating activity (intranuclear EgR content in MCF-7); assay type: cell-based; settings: MCF-7 cells; for DC50: 2 days with compound, ER-EIA, read-out: IC50 (intranuclear EgR content)
T1 construct: endogenous in cells; host or cells: MCF-7 (ATCC)
Description: Tris(hydroxymethyl)aminomethane, dithiothreitol and glycerol were obtained from Nacalai Tesque. Protease inhibitor tablets were obtained from Boehringer Mannheim. Human breast cancer cell line MCF-7 was obtained from ATCC, fetal calf serum (FCS) from Hyclone, DMEM from Invitrogen, and PBS(−) from Nissui.
Tris-HCl buffer (1 mol/L, pH=7.4) was diluted 50-fold with distilled water to a concentration of 20 mmol/L (pH=7.4). To the diluted buffer, dithiothreitol and glycerol were added to give respective final concentrations of 1 mmol/L and 10%. Further, protease inhibitor tablets were added, with one tablet per 50 mL of buffer. The thus conditioned solution was used as a solubilizing buffer.
Samples for quantitating the intranuclear estrogen receptor (EgR) were prepared by the following procedure. MCF-7 cultivated in 5% FCS/DMEM was sown on 6-cm dishes at a concentration of 4×10^5 cells/dish and cultivated for 3 days; cultivation was continued for an additional 2 days in the presence of compound 1 or compound 2 at final concentrations of 1-100 nmol/L or in the presence of compound 4 at final concentrations of 1-1,000 nmol/L or compound 5 at final concentrations of 1-10,000 nmol/L. Thereafter, the cells were washed with PBS(−), mixed with the solubilizing buffer, subjected to two cycles of freezing at −80° C. and thawing at room temperature, and centrifuged at 4° C. for 10 minutes at 4000 rpm (centrifuge: TOMY, Model MX-150). To the precipitation, the solubilizing buffer containing 500 mmol/L of NaCl was added and the mixture was treated with a micro-tube mixer (TOMY, Model MT-360) at 4° C. for about 30 minutes. Following centrifugation at 4° C. for 30 minutes at 15,000 rpm (centrifuge: TOMY, Model MX-150), the supernatant was collected and stored at −80° C. as an extracted nuclear sample. The EgR content in the extracted nuclear sample was measured with an EgR assay kit (ER-EIA “ABBOT” of Dynapot).

[5] = AUC measurement in oral administration, test with mice; assay type: in vivo; settings: plasma, 30 mg/kg, 5% gum arabic suspension; for AUC(0-inf): female, ICR, mouse, po; for AUC∞: ICR mice
Description: as §1
A 5% gum arabic suspension (10 ml/kg) of a test substance (30 mg/kg) was forcibly administered orally into ICR mice (female, 8-10 week old) by means of a mouse stomach probe and after the lapse of specified periods of time (15 minutes, 30 minutes, and 1, 2, 4, 6, 8, 24 and 48 hours), whole blood was taken from the abdominal large vein (n=3 for each time period). The concentration of the test substance in the sampled plasma was measured by HPLC (eluant: acetonitrile/water) and AUC was determined by moment analysis from the average plasma concentration for each time period. The test substances were compound 1, compound 2, compound 4 and compound 5. Two control compounds were used, one being the first component prepared in step 1 of Example 1 (control compound 2) and the other being the second component (control compound 1).

breast cancer = settings: cited from earlier work

T1 sequence (P03372 whole entry): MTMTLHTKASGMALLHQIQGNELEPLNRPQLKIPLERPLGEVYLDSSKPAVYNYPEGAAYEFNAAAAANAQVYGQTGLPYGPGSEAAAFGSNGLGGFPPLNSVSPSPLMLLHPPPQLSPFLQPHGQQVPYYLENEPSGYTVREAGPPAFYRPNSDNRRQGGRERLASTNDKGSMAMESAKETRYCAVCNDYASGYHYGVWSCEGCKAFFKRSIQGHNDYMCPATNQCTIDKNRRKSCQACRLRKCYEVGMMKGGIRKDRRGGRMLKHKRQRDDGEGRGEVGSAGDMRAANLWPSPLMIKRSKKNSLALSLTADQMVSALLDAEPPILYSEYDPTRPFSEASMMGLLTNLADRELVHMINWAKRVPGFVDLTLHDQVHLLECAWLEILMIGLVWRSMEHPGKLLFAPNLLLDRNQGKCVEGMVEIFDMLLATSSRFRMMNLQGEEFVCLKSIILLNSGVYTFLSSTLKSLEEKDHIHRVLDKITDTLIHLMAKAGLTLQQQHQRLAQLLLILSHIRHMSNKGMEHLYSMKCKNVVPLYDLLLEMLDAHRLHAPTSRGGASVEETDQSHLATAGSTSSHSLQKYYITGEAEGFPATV

Row | Compound | AUC(0-inf) [1] [µg·h/mL] | Intranuclear EgR content (in words) [4] | DC50 [4] [µM] | AUC∞ [5] [µg·h/mL] | also measured
1 | C[C@]12CC[C@@H]3c4ccc(O)cc4C[C@@H](CCCCCCCCC(CCCC(F)(F)C(F)(F)C(F)(F)C(F)(F)F)C(=O)O)[C@H]3[C@@H]1CCC2=O (single isomer, unassigned) [Compound 1, 10-(3-hydroxy-17-oxo-estra-1,3,5(10)-trien-7α-yl)-2-(4,4,5,5,6,6,7,7,7-nonafluoroheptyl)decanoic acid] | 2.42 | reduced the intranuclear EgR content in a dose-dependent manner | 0.0084 |  | No. of mature osteoclasts per well ([2]; M-CSF + sRANKL + compound at 10^−4 mol/L): 0 ± 0; No. of mature osteoclasts per well ([2]; M-CSF + sRANKL + compound at 10^−5 mol/L): 34 ± 10; Percent suppression (%) of the increase in the weight of the uterus [3]: 96%; AUC(0-inf) [5]: 468 µg·h/mL
2 | C[C@]12CC[C@@H]3c4ccc(O)cc4C[C@@H](CCCCCCCCC(CCCC(F)(F)C(F)(F)C(F)(F)C(F)(F)F)C(=O)O)[C@H]3[C@@H]1CCC2=O (single isomer, unassigned) [Compound 2, 10-(3-hydroxy-17-oxo-estra-1,3,5(10)-trien-7α-yl)-2-(4,4,5,5,6,6,7,7,7-nonafluoroheptyl)decanoic acid] |  | reduced the intranuclear EgR content in a dose-dependent manner | 0.0087 | 722.55 | 
3 | C#C[C@]1(O)CCC2C3C(CC[C@@]21C)c1ccc(O)cc1C[C@H]3CCCCCCCCC(CCCC(F)(F)C(F)(F)C(F)(F)C(F)(F)F)C(=O)O (single isomer, unassigned) [Compound 4, 10-(3,17β-dihydroxy-17α-ethynyl-estra-1,3,5(10)-trien-7α-yl)-2-(4,4,5,5,6,6,7,7,7-nonafluoroheptyl)decanoic acid] | 3.8 | reduced the intranuclear EgR content in a dose-dependent manner | 0.014 | 202.10 | Percent suppression (%) of the increase in the weight of the uterus ([3]; 10 mg/kg): 94%
4 | C#C[C@]1(O)CCC2C3C(CC[C@@]21C)c1ccc(O)cc1C[C@H]3CCCCCCCCC(CCCC(F)(F)C(F)(F)C(F)(F)C(F)(F)F)C(=O)O (single isomer, unassigned) [Compound 5, 10-(3,17β-dihydroxy-17α-ethynyl-estra-1,3,5(10)-trien-7α-yl)-2-(4,4,5,5,6,6,7,7,7-nonafluoroheptyl)decanoic acid] |  | reduced the intranuclear EgR content in a dose-dependent manner | 0.1 | 661.00 | Percent suppression (%) of the increase in the weight of the uterus ([3]; 10 mg/kg): 96%
5 | C[C@]12CC[C@@H]3c4ccc(O)cc4C[C@@H](CCCCCCCCC(CCCC(F)(F)C(F)(F)C(F)(F)C(F)(F)F)C(=O)O)[C@H]3[C@@H]1CC[C@@H]2O (single isomer, unassigned) [Control compound 1, 10-(3,17β-dihydroxyestra-1,3,5(10)-trien-7α-yl)-2-(4,4,5,5,6,6,7,7,7-nonafluoroheptyl)decanoic acid, reference compound] | 0.42 |  |  |  | AUC(0-inf) [5]: 274 µg·h/mL
6 | C[C@]12CC[C@@H]3c4ccc(O)cc4C[C@@H](CCCCCCCCC(CCCC(F)(F)C(F)(F)C(F)(F)C(F)(F)F)C(=O)O)[C@H]3[C@@H]1CC[C@@H]2O (single isomer, unassigned) [Control compound 2, 10-(3,17β-dihydroxyestra-1,3,5(10)-trien-7α-yl)-2-(4,4,5,5,6,6,7,7,7-nonafluoroheptyl)decanoic acid, reference compound] |  |  |  | 469.73 | 
7 | C[C@]12C[C@H](CCCCCCCCC(CCCC(F)(F)C(F)(F)C(F)(F)C(F)(F)F)C(=O)O)[C@@H]3c4ccc(O)cc4CC[C@H]3[C@@H]1CCC2=O (stereo partly drawn) [Compound 3, 10-(3-hydroxy-17-oxo-estra-1,3,5(10)-trien-11β-yl)-2-(4,4,5,5,6,6,7,7,7-nonafluoroheptyl)decanoic acid] |  |  |  |  | Percent suppression (%) of the increase in the weight of the uterus [3]: 99%
8 | C[C@]12CC[C@@H]3c4ccc(O)cc4C[C@@H](CCCCCCCCC[S+]([O-])CCCC(F)(F)C(F)(F)F)[C@H]3[C@@H]1CC[C@@H]2O (stereo partly shown) [Faslodex] |  |  |  |  | Objective response rate and duration of response to breast cancer (breast cancer; clinical tests, versus a SERM drug and an aromatase inhibitor): superior to a SERM drug and an aromatase inhibitor; Efficacy against tamoxifen-resistant breast cancer (breast cancer; tamoxifen-resistant breast cancer): effective against tamoxifen-resistant breast cancer
